Source: article PMC10484922, “Discovery of a selective and biologically active low-molecular weight antagonist of human interleukin-1β” (Nature Communications, 2023)
Where “and” joins values, the source holds several entries; their conditions need not be identical. Equal entries are not always repeated. Entries after “also recorded” stand apart in the source; their conditions may differ.

Tests used:
[1] = test system: HEK-Blue IL-1β cells stimulated with hIL-1α; assay: HEK293 reporter gene assay, hIL-1α as trigger; format: cell-based, human; settings: inhibitor 3nM
Experimental: (§1) We used HEK-Blue™ IL-1β cells that respond specifically to IL-1 (# hkb-il1b, InvivoGen). These cells can detect IL-1α and IL-1β, as these cytokines bind to the same receptor, IL-1R1. They express a Seap reporter gene under the control of the IFN-β minimal promoter fused to five NF-kappaB and five AP-1 binding sites. Thirty microliters (300,000 cells/ml) per well of a 384-well plate were plated overnight. Cells were then stimulated with graded concentrations of cytokines (hIL-1α or hIL-1β) in the absence or presence of canakinumab (Ilaris®, ILARI LYVI 150MG 22GLW.012, batch U003 0409)[22], anakinra (Kineret®, 100 mg/0.67 ml injectable solution, Sobi)[23], or compound (S)-2 (compounds were pre-mixed for 1 h with the cytokine prior to addition to cells) and further incubated overnight before assessment of Seap activity.

[2] = test system: HEK-Blue IL-1β cells stimulated with hIL-1β; assay: HEK293 reporter gene assay, hIL-1β as trigger; format: cell-based, human; settings: inhibitor 3nM
Experimental: as §1

[3] = test system: normal human dermal fibroblasts stimulated with hIL-1β; assay: Human fibroblast IL-6 release assay, hIL-1β stimulated; format: cell-based; set-up: IL-6, average / inhibition, replicates of EXP1, EXP2, EXP3 / inhibition, Mean / IL-1beta (mean, SD): mean readout (IL-6 release): unit not given here; settings: for % Inhibition (EXP1-EXP3, single experiments) / % Inhibition, Mean: Figure 3b; for % Inhibition, Mean: mean of 3 experiments; for Mean OD (OD 450nm) / IL-1beta (mean, SD): mean readout (IL-6 release): Figure 3c; for Mean OD (OD 450nm): compound 1 nM; for IL-1beta (mean, SD): mean readout (IL-6 release): compound @ 1nM
Experimental: as §1
(§2) Normal human dermal fibroblasts (NHDF) from Clonetics^TM (LONZA, Cat # CC-2509 (NHDF-Neo), Lot # 0000234242, used at passage ≤14) were seeded at a density of 5000 cells/well in 100 μL of culture medium using 96-well plates (flat bottom, TCT). Treatment with cytokines/compounds was performed as described above. Cells were incubated for another 6 h and were subsequently spun down (320g/3 min). IL-6 was measured in the supernatant by ELISA (BioLegend, # 430503) or HTRF (Cisbio, #62HIL06PEH).

[4] = test system: normal human dermal fibroblasts stimulated with hIL-1α; assay: Human fibroblast IL-6 release assay, hIL-1α stimulated; format: cell-based; set-up: IL-1alpha (mean, SD): mean readout (IL-6 release): unit not given here; settings: Figure 3c; for Mean OD (OD 450nm): compound 1 nM; for IL-1alpha (mean, SD): mean readout (IL-6 release): compound @ 1nM
Experimental: as §1, §2

[5] = Canakinumab concentration 0.00457247 (unit not given)
[6] = Canakinumab concentration 0.0137174 (unit not given)
[7] = Canakinumab concentration 0.0411523 (unit not given)
[8] = Canakinumab concentration 0.123457 (unit not given)
[9] = Canakinumab concentration 0.37 (unit not given)
[10] = Canakinumab concentration 1.11 (unit not given)
[11] = Canakinumab concentration 3.33 (unit not given)

With “canakinumab: anti-hIL-1β antibody [reference compound]” the “reporter gene assay signal, mean (Figure 3d)” value (“reporter gene assay signal” for short) ([1]; IL-1alpha 3.04596 pg/ml) was 0.08, the “reporter gene assay signal” value ([1]; IL-1alpha 6.09192 pg/ml) was 0.12 and the “reporter gene assay signal” value ([1]; IL-1alpha 12.1838 pg/ml) was 0.19. For the same substance, the “reporter gene assay signal” value ([1]; IL-1alpha 24.3677 pg/ml) was 0.36, the “reporter gene assay signal” value ([1]; IL-1alpha 48.7353 pg/ml) was 0.66 and the “reporter gene assay signal” value ([1]; IL-1alpha 97.4707 pg/ml) was 1.07. The “reporter gene assay signal” value ([1]; IL-1alpha 194.941 pg/ml) was 1.44, the “reporter gene assay signal” value ([1]; IL-1alpha 389.883 pg/ml) was 1.69 and the “reporter gene assay signal” value ([1]; IL-1alpha 779.766 pg/ml) was 1.8. The “reporter gene assay signal” value ([1]; IL-1alpha 1559.53 pg/ml) was 1.86, the “reporter gene assay signal” value ([1]; IL-1alpha 3119.06 pg/ml) was 1.88 and the “reporter gene assay signal” value ([1]; IL-1alpha 6238.12 pg/ml) was 1.91. The “reporter gene assay signal” value ([1]; IL-1alpha 12476.2 pg/ml) was 1.92, the “reporter gene assay signal” value ([1]; IL-1alpha 24952.5 pg/ml) was 2 and the “reporter gene assay signal” value ([1]; IL-1alpha 49905 pg/ml) was 1.98. For the same substance, the “reporter gene assay signal” value ([2]; IL-1beta 3.04596 pg/ml) was 0.06, the “reporter gene assay signal” value ([2]; IL-1beta 6.09192 pg/ml) was 0.06 and the “reporter gene assay signal” value ([2]; IL-1beta 12.1838 pg/ml) was 0.06. For the same substance, the “reporter gene assay signal” value ([2]; IL-1beta 24.3677 pg/ml) was 0.06, the “reporter gene assay signal” value ([2]; IL-1beta 48.7353 pg/ml) was 0.06 and the “reporter gene assay signal” value ([2]; IL-1beta 97.4707 pg/ml) was 0.07. The “reporter gene assay signal” value ([2]; IL-1beta 194.941 pg/ml) was 0.08, the “reporter gene assay signal” value ([2]; IL-1beta 389.883 pg/ml) was 0.1 and the “reporter gene assay signal” value ([2]; IL-1beta 779.766 pg/ml) was 0.2. For the same substance, the “reporter gene assay signal” value ([2]; IL-1beta 1559.53 pg/ml) was 0.42, the “reporter gene assay signal” value ([2]; IL-1beta 3119.06 pg/ml) was 0.74 and the “reporter gene assay signal” value ([2]; IL-1beta 6238.12 pg/ml) was 1.18. For the same substance, the “reporter gene assay signal” value ([2]; IL-1beta 12476.2 pg/ml) was 1.55, the “reporter gene assay signal” value ([2]; IL-1beta 24952.5 pg/ml) was 1.78 and the “reporter gene assay signal” value ([2]; IL-1beta 49905 pg/ml) was 1.85. For the same substance, the “block of hIL-1β driven IL-6 release” value [3] was “fully blocked; also recorded: selectively inhibited IL-1β driven activity”, the “% Inhibition (EXP1-EXP3, single experiments)” value [3, 5] was 15.5% and 11.1% and 14.6% and the “% Inhibition, Mean” value [3, 5] was 13.7%. For the same substance, the “% Inhibition (EXP1-EXP3, single experiments)” value [3, 6] was 23.7% and 27.7% and 26.5%, the “% Inhibition, Mean” value [3, 6] was 26% and the “% Inhibition (EXP1-EXP3, single experiments)” value [3, 7] was 29% and 29.6% and 31.5%. For the same substance, the “% Inhibition, Mean” value [3, 7] was 30%, the “% Inhibition (EXP1-EXP3, single experiments)” value [3, 8] was 46.1% and 41.8% and 58.9% and the “% Inhibition, Mean” value [3, 8] was 48.9%. The “% Inhibition (EXP1-EXP3, single experiments)” value [3, 9] was 71.6% and 66.1% and 70.6%, the “% Inhibition, Mean” value [3, 9] was 69.4% and the “% Inhibition (EXP1-EXP3, single experiments)” value [3, 10] was 91.2% and 93.8% and 92.3%. The “% Inhibition, Mean” value [3, 10] was 92.4%, the “% Inhibition (EXP1-EXP3, single experiments)” value [3, 11] was 99.3% and 99.2% and 98.7% and the “% Inhibition, Mean” value [3, 11] was 99%. The “Mean OD (OD 450nm)” value ([3]; hu IL-1b 0 pg/mL) was 0.033, the “IL-1beta (mean, SD): mean readout (IL-6 release)” value (from here on “IL-1beta (mean, SD): mean readout”) ([3]; hu IL-1b 0 pg/mL) was 0 and the “Mean OD (OD 450nm)” value ([3]; hu IL-1b 40 pg/mL) was 0.046. The “IL-1beta (mean, SD): mean readout” value ([3]; hu IL-1b 40 pg/mL) was 0, the “Mean OD (OD 450nm)” value ([3]; hu IL-1b 80 pg/mL) was 0.099 and the “IL-1beta (mean, SD): mean readout” value ([3]; hu IL-1b 80 pg/mL) was 0. For the same substance, the “Mean OD (OD 450nm)” value ([3]; hu IL-1b 120 pg/mL) was 0.15, the “IL-1beta (mean, SD): mean readout” value ([3]; hu IL-1b 120 pg/mL) was 353.7 and the “Mean OD (OD 450nm)” value ([3]; hu IL-1b 160 pg/mL) was 0.229. The “IL-1beta (mean, SD): mean readout” value ([3]; hu IL-1b 160 pg/mL) was 936.8, the “Mean OD (OD 450nm)” value ([3]; hu IL-1b 200 pg/mL) was 0.252 and the “IL-1beta (mean, SD): mean readout” value ([3]; hu IL-1b 200 pg/mL) was 1110.8. The “Mean OD (OD 450nm)” value ([4]; hu IL-1A 0 pg/mL) was 0.041, the “Mean OD (OD 450nm)” value ([4]; hu IL-1A 40 pg/mL) was 0.388 and the “Mean OD (OD 450nm)” value ([4]; hu IL-1A 80 pg/mL) was 0.589. The “Mean OD (OD 450nm)” value ([4]; hu IL-1A 120 pg/mL) was 0.693, the “Mean OD (OD 450nm)” value ([4]; hu IL-1A 160 pg/mL) was 0.774 and the “Mean OD (OD 450nm)” value ([4]; hu IL-1A 200 pg/mL) was 0.785. For the same substance, the “IL-1alpha (mean, SD): mean readout (IL-6 release)” value (“IL-1alpha (mean, SD): mean readout” below) ([4]; hu IL-1a 0 pg/mL) was 0, the “IL-1alpha (mean, SD): mean readout” value ([4]; hu IL-1a 40 pg/mL) was 2114.2 and the “IL-1alpha (mean, SD): mean readout” value ([4]; hu IL-1a 80 pg/mL) was 3604.7. The “IL-1alpha (mean, SD): mean readout” value ([4]; hu IL-1a 120 pg/mL) was 4369.8, the “IL-1alpha (mean, SD): mean readout” value ([4]; hu IL-1a 160 pg/mL) was 4969.2 and the “IL-1alpha (mean, SD): mean readout” value ([4]; hu IL-1a 200 pg/mL) was 5051.1.
